Data from patent US8410178B2, “CIS 3,4-dihydroxy-2-(3-methylbutanoyl)-5-(3-methylbutyl)-4-(4-methylpentanoyl)cyclopent-2-en-1-derivatives, substantially enantiomerically pure compositions and methods” (KinDex Therapeutics, LLC, priority 2010, dated 2013).
Read-outs that look alike come from different tables or passages of the source. Each block holds one compound with its values, some of them ahead of it.

What was measured:
GPR120 = biological target: T1, GPR120 (Homo sapiens, UniProt Q5NUL3); assay: GPR120 activity, intracellular calcium response in CHO-K1/GPR120/Gα15 cells; format: cell-based
T1 sequence (Q5NUL3 1-361): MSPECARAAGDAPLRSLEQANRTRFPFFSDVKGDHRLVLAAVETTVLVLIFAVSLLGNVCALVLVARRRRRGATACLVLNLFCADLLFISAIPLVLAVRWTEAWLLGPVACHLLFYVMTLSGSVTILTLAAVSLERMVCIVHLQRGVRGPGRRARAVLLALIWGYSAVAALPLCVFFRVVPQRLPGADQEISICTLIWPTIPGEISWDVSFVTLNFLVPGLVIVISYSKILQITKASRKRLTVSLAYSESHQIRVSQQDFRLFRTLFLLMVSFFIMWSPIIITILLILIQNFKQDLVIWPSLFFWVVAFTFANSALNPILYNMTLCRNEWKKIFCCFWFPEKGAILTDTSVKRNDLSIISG
Procedure: GPR120 activity was measured by intracellular calcium response. CHO-K1/GPR120/Gα15 cells were regularly passaged to maintain optimal cell health and cultured in Ham's F12 supplemented with 10% fetal bovine serum, 200 μg/mL zeocin, and 100 μg/mL hygromycin. Cells were seeded in a 384-well black-wall, clear-bottom plate at a density of 20,000 cell per well in 20 μL of growth medium 18 hours prior to the start of the experiment, and maintained at 37° C./5% CO2. Cells were loaded with calcium-4, and baseline fluorescence readings were obtained from 1 second to 20 seconds using a fluorescent imaging plate reader (FLIPR). At 20 seconds, (+)-KDT501 (5× final concentration) was added to the reading plate, and the fluorescence signal was monitored for 100 seconds (21 seconds to 120 seconds). α-linolenic acid (LA), eicosapentaenoic acid (EPA), and docosahexaenoic acid (DHA) were used as controls. Data acquisition and analysis was performed using ScreenWorks (version 3.1) and exported to Excel. The average fluorescence value for the first 20 seconds was calculated as the baseline reading. The relative fluorescent unit (ΔRFU) intensity values were calculated with the maximal fluorescent units (21 s to 120 s), subtracting the baseline reading. Data analysis wizard written by GenScript was used to analyze EC50. Dose response curves of antagonist were fitted using the GraphPad Prism 4 four parameter logistic equation Y=Bottom+(Top−Bottom)/(1+10^((LogIC50−X)*HillSlope)), where X is the logarithm of concentration and Y is response.

PPARγ = biological target: T2, PPARγ (Homo sapiens, UniProt P37231); assay: PPARγ luciferase reporter assay; format: cell-based; details: reporter cells, 20 hours
T2 sequence (P37231 1-505): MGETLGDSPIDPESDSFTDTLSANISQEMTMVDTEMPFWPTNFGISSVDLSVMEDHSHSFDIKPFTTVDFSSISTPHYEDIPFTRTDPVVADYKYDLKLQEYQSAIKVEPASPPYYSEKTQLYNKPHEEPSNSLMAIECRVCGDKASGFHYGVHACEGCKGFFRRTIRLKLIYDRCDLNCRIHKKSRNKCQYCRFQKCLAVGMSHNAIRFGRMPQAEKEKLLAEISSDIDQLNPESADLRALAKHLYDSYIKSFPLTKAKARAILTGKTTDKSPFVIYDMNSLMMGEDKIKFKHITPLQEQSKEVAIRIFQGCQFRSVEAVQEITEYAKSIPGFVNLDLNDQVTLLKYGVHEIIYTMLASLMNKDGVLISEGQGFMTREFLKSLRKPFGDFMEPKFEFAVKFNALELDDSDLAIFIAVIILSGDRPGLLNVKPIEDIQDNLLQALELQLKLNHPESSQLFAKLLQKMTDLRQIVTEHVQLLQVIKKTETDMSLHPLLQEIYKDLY
Procedure: The functional effect of (+)-KDT501 on PPARα, PPARδ, and PPARγ activity was evaluated using a PPAR reporter assay (INDIGO Biosciences, PA). This assay utilizes non-human mammalian cells engineered to provide constitutive high level expression of PPARα, PPARδ, or PPARγ and containing a luciferase report gene specific to the appropriate PPAR. Following activation by agonist binding, PPAR induces expression of the luciferase reporter gene. Luciferase activity therefore provides a surrogate for measuring PPAR activity in agonist-treated cells.
Reporter cells were plated on a 96-well plate at 100 μL per well, and 100 μL of (+)-KDT501 at various final concentrations (25, 12.5, 6.25, 3.125, 1.56 and 0.78 μM) was added to each well. […] 0.1% DMSO was also used as a negative control for each assay. Plates are incubated for 20 hours in a humidified incubator at 37° C. and 5% CO2. After incubation, cell medium was discarded and the cells were treated with 100 μL of luciferase detection reagent for 15 minutes. Plates were analyzed using a luminometer (Victor2, Perkin Elmer). Average relative light unit (RLU) and standard deviation were analyzed using GraphPad Prism.
The PPAR activity assays were repeated as described above using both (+)-KDT501(12.5, 6.25, 3.125, 1.56, and 0.78 μM) and (−)-KDT501 (25, 12.5, 6.25, 3.125, 1.56, and 0.78 μM).

[1] = test system: Zucker diabetic fatty (ZDF) rats; assay: Glucose and triglyceride levels in a rat diabetes model; format: in vivo; details: 200 mg/kg orally twice a day
Procedure: 64 six-week-old male Zucker diabetic fatty (ZDF) rats with glucose levels of 175-300 mg/dL were randomized and divided into eight dosing groups: 1) vehicle only (0.5% methylcellulose (w/v), 0.2% Tween 80 (w/v); negative control), 2) (+)-KDT501 25 mg/kg, 3) (+)-KDT501 50 mg/kg, 4) (+)-KDT501 100 mg/kg, 5) (+)-KDT501 200 mg/kg, 6) metformin 200 mg/kg (positive control), 7) metformin 200 mg/kg and (+)-KDT501 100 mg/kg, and 8) pioglitazone 30 mg/kg (positive control). Drugs were administered orally twice a day for 33 days.
Animals were weighed at randomization and once per week thereafter, with administration dosages calculated based on the most recent body weight measurements. Blood samples were collected by tail bleed three days prior to randomization, at randomization, and at days 15 and 29 after the start of treatment. These blood samples were used to perform whole blood glucose evaluations using a glucometer, as well as to measure blood triglyceride levels. Body composition was tested by qNMR on days 2 and 29 after the start of treatment. An oral glucose tolerance test (OGTT) was performed on days 31 and 32 after the start of treatment. Rats underwent an overnight fast prior to OGTT, and tail bleeds for glucose and insulin were performed pre-glucose bolus and at 15, 30, 60, 90, and 120 minutes post-glucose bolus. The glucose bolus was 2 g dextrose/kg of body weight. On day 33, a cardiac puncture was performed for PK analysis.

[2] = test system: diet induced obese (DIO) mice; assay: Glucose, insulin, HbA1C and fat mass in high fat diet-induced obesity (DIO) mouse model; format: in vivo; details: 200 mg/kg orally twice a day
Procedure: 14 week-old male mice were randomized and divided into seven dosing groups with 16 animals in each group: 1) vehicle only (0.5% methylcellulose (w/v), 0.2% Tween 80 (w/v); negative control), 2) (+)-KDT501 25 mg/kg, 3) (+)-KDT501 50 mg/kg, 4) (+)-KDT501 100 mg/kg, 5) (+)-KDT501 200 mg/kg, 6) metformin 200 mg/kg (positive control), and 7) pioglitazone 30 mg/kg (positive control). Drugs were administered orally twice a day for 30 days.
Animals were weighed at randomization and once per week thereafter, with administration dosages calculated based on the most recent body weight measurements. The mice were maintained on a high fat diet (40% Kcal) (TD95217; prepared by Covance Laboratories, Greenfield, Ind.). Body composition was tested by qNMR on days −5 and 28 after the start of treatment. […]. An oral glucose tolerance test (OGTT) was performed on day 30 after the start of treatment. Mice underwent an overnight fast prior to OGTT, and tail bleeds for glucose and insulin were performed pre-glucose bolus and at 15, 30, 60, 90, and 120 minutes post-glucose bolus. The glucose bolus was 2 g dextrose/kg of body weight. OGTT results were evaluated by area under the curve (AUC) measurements and Dunnett's test.

[3] = CHO-K1/GPR120/Gα15 cells, calcium response, read-out: GPR120 agonistic activity EC50

EC50 (GPR120; [3]): 116 µM
Compound: CC/C=C\C/C=C\C/C=C\C/C=C\C/C=C\CCCC(=O)O [EPA, eicosapentaenoic acid]

PPARγ activity (PPARγ): increased PPARγ activity
Compound: CCCc1nc2c(C)cc(-c3nc4ccccc4n3C)cc2n1Cc1ccc(-c2ccccc2C(=O)O)cc1 [Telmisartan, telmisartan, reference compound]

Second part, the compound before the results:

Compound: CC/C=C\C/C=C\C/C=C\C/C=C\C/C=C\C/C=C\CCC(=O)O [DHA, docosahexaenoic acid]
EC50 (GPR120; [3]): 35.3 µM

Compound: CN(C)C(=N)N=C(N)N [metformin, reference compound]
whole blood glucose levels [1]: slight increase
triglyceride levels ([1]; days 15 and 29): increase
HbA1C ([2]; day 29, versus vehicle-only): significant difference
blood glucose levels from the OGTT ([2]; day 30): significant decrease
insulin levels from the OGTT ([2]; day 30): significant decrease
fat mass ([2]; qNMR day 28): reduction in fat mass

Compound: CC/C=C\C/C=C\C/C=C\CCCCCCCC(=O)O [α-LA, α-linolenic acid]
EC50 (GPR120): 36.1 µM
